Where a chain is given by its changes, count along the chain named.
Tests used:
[1] = target: T1, hERα (Homo sapiens, UniProt P03372); assay: Transient transfection reporter assay for hERα in MCF-7 cells; type: cell-based; design: Relative Estrogenic Activity: dose or concentration left out as unconfirmed; details: for Relative Estrogenic Activity: MCF-7 cells transfected with hERα, DMSO set as 1; for estrogenic effect: MCF-7 cells, hERα, compared with DMSO and tamoxifen; for Relative Antiestrogenic Activity at 2.5 μM: with 1 nM estradiol, 1 nM E2 used as reference (1); for antiestrogenic / inhibition activity: against 1 nM estrogen
T1 construct: mammalian expression plasmid containing full length human ER cDNA, pCMV-hER; expressed in transfected cells; host or cells: MCF-7 human breast cancer cells
T1 sequence (P03372 1-595): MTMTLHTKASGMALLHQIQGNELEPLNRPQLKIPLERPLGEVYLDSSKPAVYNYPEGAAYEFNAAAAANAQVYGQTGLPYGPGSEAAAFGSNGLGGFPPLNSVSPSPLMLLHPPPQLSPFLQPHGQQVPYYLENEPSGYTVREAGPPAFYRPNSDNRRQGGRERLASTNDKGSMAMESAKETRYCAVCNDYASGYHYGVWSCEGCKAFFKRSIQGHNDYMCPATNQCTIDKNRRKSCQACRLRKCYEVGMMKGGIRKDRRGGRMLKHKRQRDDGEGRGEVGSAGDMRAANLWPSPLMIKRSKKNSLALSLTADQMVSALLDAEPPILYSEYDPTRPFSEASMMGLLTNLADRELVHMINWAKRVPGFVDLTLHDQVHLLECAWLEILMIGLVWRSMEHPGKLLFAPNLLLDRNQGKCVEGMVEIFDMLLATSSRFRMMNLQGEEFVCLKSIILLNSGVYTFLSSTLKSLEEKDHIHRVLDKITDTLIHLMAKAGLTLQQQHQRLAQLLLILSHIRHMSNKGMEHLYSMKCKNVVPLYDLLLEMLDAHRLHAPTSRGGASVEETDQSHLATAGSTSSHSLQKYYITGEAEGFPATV
Protocol: (§1) For the transient transfection reporter assays, the cells were plated in triplicate in 12-well plates at a density of 300000 cells/well in the phenol red-free DMEM (GIBCO/BRL, Grand Island, N.Y.) supplemented with 10% charcoal-stripped fetal bovine serum (Hyclone, Logan, Utah), Penicillin (100 unit/ml)/Streptomycin ([…]), 2 mML-glutamine and 1 mM sodium Pyruvate. 24 hrs later, the cells were transfected with three plasmids by using Superfect transfection kit (Qiagen, Valencia, Calif.). For the detection of hER activity, cells were transfected with 2 g hER expression plasmid (pCMV-ER ), 6 g luciferase reporter plasmid containing estrogen receptor response element (PGL-TATA-Luc), and 600 ng normalization control, β-galactosidase reporter plasmid (pCMV ). For the detection of hER activity, cells were transfected with 3 ug hER expression plasmid (pcDNA3.1-hER), 6 g luciferase reporter plasmid containing estrogen receptor response element (PGL-TATA-Luc), and 600 ng pCMV. For determining the influence of ER's major coactivator in breast, AIB 1, 2 g pcDNA3.1-AIB1 was added into the transfection plasmid solution mentioned previously.
(§2) The transfected cells were rinsed with PBS and treated with various concentrations of test molecules and one […] (vehicle, DMSO or methanol) in phenol red-free culture medium. After incubation for further 24 hrs, the cells were washed with PBS and lysed with lysis buffer (Pierce, Rockford, Ill.). The lysate was used to determine the luciferase activity for ER's activity and the β-galactosidase activity for the normalization of transfection efficiency.
(§3) For the luciferase activity assay, 20 μl of lysate and 100 μl luciferase assay buffer (Promega, Madison, Wis.) were added into a well of 96-well plate. The luminescence was detected by using luminescence microplate reader, LumiCount (Packard, Boston, Mass.). For the β-galactosidase activity assay, […] β-galactosidase assay buffer (Clontech, Palo Alto, Calif.) were added into a well of 96-well plate. The β-galactosidase activity was measured as luminescence strength by using luminescence microplate reader, LumiCount (Packard, Boston, Mass.). The normalized reporter activity was calculated by the luciferase activity divided by that of β-galactosidase.
The transient transfection reporter assay was used to determine the estrogenic or antiestrogenic activity of tested compounds in employed human breast cancer cells, MCF-7 cells that are cotransfected with hERα expression and reporter plasmids. […] […] The estrogenic (antiestrogenic) activity was determined by dividing the luciferase activity by the β-galactosidase activity. To determine the influence of estrogen receptor's major coactivator in breast cancer, AIB1, for the compounds' estrogenic activity, the expression vector of AIB1 was additionally cotransfected with the plasmids mentioned above.

[2] = target: T2, hERα D351Y (Homo sapiens, UniProt P03372, D351Y); assay: Transient transfection reporter assay with hERα D351Y mutant; type: cell-based
T2 construct: mammalian expression plasmid containing full length human ER cDNA, pCMV-hER; expressed in transfected cells
T2 sequence (P03372 1-595 D351Y): T1 sequence (P03372 1-595) with D351Y
Protocol: The tyrosine mutation (pCMV-D351Y) at amino acid 351 was introduced by using the Quick Change Site-Directed Mutagenesis Kit (Stratagene, La Jolla, Calif.) and pCMV-ER was used as the template. The primers constructed were as follows: 5′ primer (5′-[…]-3′) (SEQ ID NO. 9), the underlined nucleotide was changed to make the D351Y mutation) and a 3′ primer (5′-[…]-3′) (SEQ ID NO. 10).
as §1, §2, §3
Amino acid 351 (D351) of hERα plays an essential role in regulating estrogenic or antiestrogenic compound's binding to hERα and the recruitment of corepressors. […] Based on this observation the hERα D351Y mutant is generated by PCR-based site directed mutagenesis method for use in the transient transfection reporter assay. The main goal of this testing is to elucidate the existence of the pure antiestrogenic property of the compounds of the invention and to determine whether the compounds estrogenic activity will increase due to the presence of hERα D351Y or not.
In this assay, DMSO was used as reference.

| SMILES | Relative Estrogenic Activity [1] | estrogenic effect [1] | Relative Antiestrogenic Activity at 2.5 μM [1] | estrogenic activity against hERα D351Y compared with hERα wild type (FIG. 5) [2] | estrogenic effects against mutant hERα D351Y compared with DMSO (FIG. 5) [2] | antiestrogenic / inhibition activity [1] |
| --- | --- | --- | --- | --- | --- | --- |
| CCCCNC(=O)CCCCCCCCCCOCC1Cc2ccccc2CN1C(=O)c1cccc(OC)c1 (centres unmarked) [Compound 4] | 0.78 | do not exert any estrogenic effects | 0.79 | do not increase | even lower than that of DMSO |  |
| CCCCNC(=O)CCCCCCCCCCOCC1Cc2ccccc2CN1C(=O)c1cccc(O)c1 (centres unmarked) [Compound 6] | 1.03 | do not exert any estrogenic effects | 0.44 | do not increase | even lower than that of DMSO | strongest inhibition activity |
| CCCCNC(=O)CCCCCCCCCCOCC1Cc2ccccc2CN1C(=O)c1ccc(O)cc1 (centres unmarked) [Compound 7] | 2.05 | highest estrogenic effect | 0.76 | do not increase | even lower than that of DMSO | moderate antiestrogenic activity |

From patent US7601739B2, “Compounds having antiestrogenic and tissue selective estrogenic properties, and compounds with anti-androgenic properties for treatment of prostate cancer and androgen receptor dependent diseases” (Virgina Commonwealth University, priority 2006, dated 2009)
